# Literature values as cited in patent US9060950B2, “Emetic embedded capsule” (Paul H. Rosenberg, Proximate Concepts, LLC., priority 2005, dated 2015).
# Where a name gives a salt, the structure may show the parent alone.
# Experiments:
# [1] = not given; remark: listed apart in the source
structure (smiles),measurement,setting,value
"CNCCC(Oc1ccc(C(F)(F)F)cc1)c1ccccc1 (centres unmarked) [fluoxetine hydrochloride, Fluoxetine hydrochloride]",ingested amount reported to have caused death,ingestion,520 mg
Cc1nnc2n1-c1ccc(Cl)cc1C(c1ccccc1Cl)=NC2 [Triazolm],amount ingested after which manifestations of overdose may occur,ingestion,2 mg
O.O.O.O.O.O.O.O=S(=O)([O-])[O-].[Zn+2] [Zinc sulfate heptahydrate],amount ingested that causes emesis,[1],0.6 grams
"CC(=O)Nc1ccc(O)cc1 [acetaminophen, Acetaminophen]",amount ingested following which hepatic toxicity may occur,in vivo,7.5 grams
same,amount ingested following which fatalities may occur,ingestion,15 grams
